Measured values taken from publication PMC10318527, “Utilization of dietary mixed-linkage β-glucans by the Firmicute Blautia producta” (The Journal of Biological Chemistry, 2023).
“And” between values parts separate entries of the source, which are not always exact repeats. Identical values can stand only once. Like-named read-outs stand apart in the source and are kept apart here.

Legend:
[1] = target: BpSBPMLG (Blautia producta, UniProt A0ABX6JB09); assay: Isothermal titration calorimetry of oligosaccharide binding to BpSBPMLG; design: species or system Blautia producta ATCC 27340
Protocol: The binding of β-(1,4), β-(1,3), and MLG-oligosaccharides to BpSBPMLG was measured at 25 °C in 10 mM sodium phosphate buffer (pH 7) using a MicroCal PEAQ-ITC (Malvern). The protein was extensively dialyzed against 10 mM sodium phosphate and all glycan ligands were also dissolved in the same buffer to minimize the heat of dilution. 13 injections of an oligosaccharide were titrated on BpSBPMLG present in the sample cell. Various preliminary titration setups were tried by changing amounts of protein (5–100 μM) and ligand (50 μM–10 mM) to get the best experimental conditions. Thermodynamic binding parameters [calculates binding affinity (Kd), stoichiometry (n), enthalpy (ΔH), Gibbs free energy change (ΔG), and entropy (ΔS)] were determined using the MicroCal PEAQ-ITC analysis software.

[2] = tested on: BpGH16MLG; assay: Initial screening of BpGH16MLG against substrates (TLC); assay type: biochemical, Blautia producta ATCC 27340; details: pH 5.7, 37 °C, 2 h
Protocol: After the appropriate incubation time, the reaction was terminated by boiling (5 min), and generated oligosaccharides were analyzed by thin layer chromatography (TLC). Typically, 1 μl of the reaction mixture was used for TLC analysis. TLC analysis was performed on Silica Gel 60 F254 (Merck), and produced sugars were visualized by spraying TLC with 5% H2SO4 in ethanol, followed by heating.

[3] = target: T1, BpGH94MLG (Blautia producta, UniProt A0A7G5MNS2); assay: Phosphorolysis activity of BpGH94MLG on substrates (TLC); assay type: biochemical, Blautia producta ATCC 27340; details: inorganic phosphate, 37 °C
T1 sequence (A0A7G5MNS2 1-804): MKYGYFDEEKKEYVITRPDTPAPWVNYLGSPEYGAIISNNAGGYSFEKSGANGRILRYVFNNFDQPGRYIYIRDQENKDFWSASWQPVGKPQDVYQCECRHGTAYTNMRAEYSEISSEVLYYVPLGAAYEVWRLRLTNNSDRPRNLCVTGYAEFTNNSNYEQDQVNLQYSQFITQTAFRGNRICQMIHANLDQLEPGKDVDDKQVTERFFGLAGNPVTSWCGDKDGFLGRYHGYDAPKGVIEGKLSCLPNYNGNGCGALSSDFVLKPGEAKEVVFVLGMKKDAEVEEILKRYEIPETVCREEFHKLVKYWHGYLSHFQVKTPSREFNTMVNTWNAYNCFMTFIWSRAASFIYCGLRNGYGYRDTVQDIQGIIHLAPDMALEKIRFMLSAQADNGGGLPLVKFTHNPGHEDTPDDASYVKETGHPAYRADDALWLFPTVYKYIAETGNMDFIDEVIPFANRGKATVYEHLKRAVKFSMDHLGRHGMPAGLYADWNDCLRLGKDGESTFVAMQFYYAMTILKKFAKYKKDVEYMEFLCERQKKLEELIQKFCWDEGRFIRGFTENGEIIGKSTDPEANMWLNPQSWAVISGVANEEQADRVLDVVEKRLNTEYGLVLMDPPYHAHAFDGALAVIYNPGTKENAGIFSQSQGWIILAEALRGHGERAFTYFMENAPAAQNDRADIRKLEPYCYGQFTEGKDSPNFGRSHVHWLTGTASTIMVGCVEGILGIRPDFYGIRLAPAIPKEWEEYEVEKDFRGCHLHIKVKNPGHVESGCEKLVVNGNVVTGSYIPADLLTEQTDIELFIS
Protocol: (§1) TLC was used for analyzing enzymatic actions. […] Kinetics parameters for BpGH94MLG were determined with G4G3G, G4G4G3G and cellotriose, following a p-hydroxybenzoic acid hydrazide (PAHBAH) reducing sugar assay ([69]).

[4] = target: BpGH3-AR8MLG (Blautia producta, UniProt A0ABX6J8C8); assay type: biochemical, Blautia producta ATCC 27340; details: for Km / kcat: PAHBAH assay, 100 mM HEPES pH 6.5, 37 °C
Protocol: (§2) 150 μl of a freshly prepared 8:2 mixture of reagent A (50 mM sodium sulfite, 0.3 M 4-hydroxybenzhydrazide and 0.6 M HCl) and reagent B (50 mM trisodium citrate, 10 mM CaCl2, 0.5 M NaOH) were added to 50 μl sample. The reaction cocktail was boiled for 10 min at 100 °C. After the reaction was cooled down, the absorbance was recorded at 410 nm using the SpectraMax i3x multi-mode microplate reader. A calibration curve with different concentrations of glucose (0, 2, 4, 8, 16, 40, 80, 100, 200, 300, and 500 μM) was employed for each experiment to calculate the released amount of glucose (reducing end equivalents). The same samples were also used for control measurement, and the control value was subtracted from test reading prior to calculate kinetics parameters. In all cases, the Km, Vmax, and kcat were analyzed on GraphPad Prism. Three independent replicates were used for each test. TLC analyses were used for understanding the enzymatic degradation profiles of various oligosaccharides.

[5] = tested on: BpGH16MLG (BPGH16); assay: Michaelis-Menten kinetics of BpGH16MLG on β-glucans (DNS assay); assay type: biochemical, Blautia producta ATCC 27340; details: native BPGH16; DNS assay; pH 5.7, 37 °C
Protocol: Then, reactions were terminated by boiling for 5 min. Enzymatic assays were determined with 3,5- dinitrosalicylic acid (DNS) assay ([85]). In brief, 0.05 g Na2SO3 and 1 g DNS were mixed in a 50 ml water-containing reagent bottle and stirred about 6 h using a magnetic stirrer. After that, 200 μl phenol was added and made up to 100 ml. A working solution of DNS was prepared by adding 50 μl glucose (20% (w/v) stock) in prepared 100 ml of reagent mixtures and immediately used for experiments without adding NaOH. 80 μl DNS reagent was added to the reaction mixtures and incubated at 100 °C for 10 min, followed by ice-cooling for 10 min. Consequently, recorded the developed color spectrophotometrically at 575 nm ([85]). A standard curve generated by different concentrations of maltose was used for determining released reducing sugars in each case.

[6] = target: T1, BpGH94MLG; assay: Phosphorolysis kinetics of BpGH94MLG (PAHBAH assay); assay type: biochemical, Blautia producta ATCC 27340
Protocol: as §1

[7] = target: T2, BpGH3-X62MLG (Blautia producta, UniProt A0ABX6JIM0); assay: Hydrolysis kinetics of BpGH3-X62MLG (PAHBAH assay, TLC)
T2 sequence (A0ABX6JIM0 1-920): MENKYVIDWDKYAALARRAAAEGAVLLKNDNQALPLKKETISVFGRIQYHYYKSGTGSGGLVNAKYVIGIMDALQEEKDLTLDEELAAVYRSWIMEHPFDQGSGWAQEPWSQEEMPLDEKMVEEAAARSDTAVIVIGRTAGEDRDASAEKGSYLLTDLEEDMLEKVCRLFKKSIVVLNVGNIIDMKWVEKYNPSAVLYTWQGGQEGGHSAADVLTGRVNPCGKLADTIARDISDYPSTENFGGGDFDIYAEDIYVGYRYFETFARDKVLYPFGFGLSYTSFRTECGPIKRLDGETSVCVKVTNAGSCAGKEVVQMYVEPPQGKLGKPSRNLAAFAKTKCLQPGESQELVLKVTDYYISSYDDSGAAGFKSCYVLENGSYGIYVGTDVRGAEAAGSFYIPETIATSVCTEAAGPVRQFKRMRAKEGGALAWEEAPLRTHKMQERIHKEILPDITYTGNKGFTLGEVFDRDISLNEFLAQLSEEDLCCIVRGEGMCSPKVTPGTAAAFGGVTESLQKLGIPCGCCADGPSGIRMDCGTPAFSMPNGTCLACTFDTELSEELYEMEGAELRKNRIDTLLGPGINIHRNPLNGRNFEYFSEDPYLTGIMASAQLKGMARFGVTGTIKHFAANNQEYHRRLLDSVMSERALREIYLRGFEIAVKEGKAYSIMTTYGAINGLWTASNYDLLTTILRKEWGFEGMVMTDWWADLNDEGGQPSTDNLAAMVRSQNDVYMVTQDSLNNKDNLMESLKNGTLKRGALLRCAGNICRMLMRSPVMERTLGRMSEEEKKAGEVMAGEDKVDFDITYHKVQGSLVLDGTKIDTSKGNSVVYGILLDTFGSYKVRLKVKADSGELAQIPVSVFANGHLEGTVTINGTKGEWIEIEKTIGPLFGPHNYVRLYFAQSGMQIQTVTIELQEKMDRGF
Protocol: as §2

[8] = tested on: TaCDP; design: method as in PMID 28687766; details: phosphorolytic reaction; cited from earlier work
[9] = ITC at 25 °C, 10 mM sodium phosphate pH 7.0

Sequence of BpSBPMLG (A0ABX6JB09 entry or part of it): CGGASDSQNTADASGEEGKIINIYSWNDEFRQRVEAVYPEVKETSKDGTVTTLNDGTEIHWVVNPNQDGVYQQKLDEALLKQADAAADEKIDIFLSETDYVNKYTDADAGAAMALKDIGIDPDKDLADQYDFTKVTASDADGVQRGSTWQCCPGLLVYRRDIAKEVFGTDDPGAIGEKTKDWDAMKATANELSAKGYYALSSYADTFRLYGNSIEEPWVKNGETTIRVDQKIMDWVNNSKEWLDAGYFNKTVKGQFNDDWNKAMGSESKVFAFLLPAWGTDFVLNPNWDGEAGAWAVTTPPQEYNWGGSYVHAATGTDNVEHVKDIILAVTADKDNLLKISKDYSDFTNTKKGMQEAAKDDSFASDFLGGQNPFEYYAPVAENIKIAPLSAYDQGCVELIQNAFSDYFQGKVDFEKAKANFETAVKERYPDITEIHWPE
Sequence of BpGH3-AR8MLG (A0ABX6J8C8 entry or part of it): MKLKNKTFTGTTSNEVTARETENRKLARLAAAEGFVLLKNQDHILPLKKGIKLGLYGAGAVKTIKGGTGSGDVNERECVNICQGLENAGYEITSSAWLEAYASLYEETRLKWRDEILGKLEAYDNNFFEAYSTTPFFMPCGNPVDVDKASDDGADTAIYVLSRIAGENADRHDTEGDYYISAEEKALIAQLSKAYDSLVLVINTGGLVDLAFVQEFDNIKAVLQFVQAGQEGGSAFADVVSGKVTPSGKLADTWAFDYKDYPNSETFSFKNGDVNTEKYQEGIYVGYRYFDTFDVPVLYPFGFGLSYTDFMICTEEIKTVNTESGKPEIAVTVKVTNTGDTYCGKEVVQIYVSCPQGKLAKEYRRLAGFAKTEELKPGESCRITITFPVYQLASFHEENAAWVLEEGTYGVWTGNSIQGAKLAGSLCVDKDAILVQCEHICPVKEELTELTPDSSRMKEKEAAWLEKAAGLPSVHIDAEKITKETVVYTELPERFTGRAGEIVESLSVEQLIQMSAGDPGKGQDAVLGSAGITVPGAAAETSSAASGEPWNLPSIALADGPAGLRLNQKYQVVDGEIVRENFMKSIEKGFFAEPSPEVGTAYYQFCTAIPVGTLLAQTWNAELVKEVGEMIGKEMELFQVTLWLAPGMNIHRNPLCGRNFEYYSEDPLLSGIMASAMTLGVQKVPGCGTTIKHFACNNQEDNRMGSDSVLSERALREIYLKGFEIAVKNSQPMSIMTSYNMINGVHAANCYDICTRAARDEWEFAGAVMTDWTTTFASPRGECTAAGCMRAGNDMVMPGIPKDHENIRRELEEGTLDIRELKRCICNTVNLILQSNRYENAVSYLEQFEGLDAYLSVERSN

Molecule	-TΔS^0 [1, 9]	ΔH [1, 9]	activity of BpGH16MLG on substrate (initial screening) [2]	Kd [1]	binding to BpSBPMLG (in words) ([1]; ITC)	n (binding stoichiometry) [1, 9]	ΔG^0 [1, 9]	phosphorolysis activity of BpGH94MLG (in words) [3]	other results
OC[C@H]1O[C@@H](O[C@@H]2[C@@H](O)[C@H](O[C@@H]3[C@@H](O)[C@H](O[C@H]4[C@H](O)[C@@H](CO)OC(O)[C@@H]4O)O[C@H](CO)[C@H]3O)O[C@H](CO)[C@H]2O)[C@H](O)[C@@H](O)[C@@H]1O (some centres unmarked) [Laminaritetraose]	5.29 kcal/mol	-0.15 ± 0.12 kcal/mol							Kd ([1]; ITC, read-out: Kd): 5600 µM
yeast β-glucan			did cleave						
lentinan			did cleave						
OC[C@H]1O[C@@H](O[C@H]2[C@H](O)[C@@H](CO)OC(O)[C@@H]2O)[C@H](O)[C@@H](O)[C@@H]1O (some centres unmarked) [Laminaribiose]		-3.14 ± 0.16 kcal/mol	did not show activity	22.1 µM	some affinity	1.03 ± 0.02	-6.35 kcal/mol	did not show any phosphorolysis activity	Km [4]: 240 ± 30 µM; kcat [4]: 12 ± 0.2 s⁻¹
OC[C@H]1O[C@@H](O[C@H]2[C@H](O)[C@@H](O)[C@H](O)O[C@@H]2CO)[C@H](O)[C@@H](O)[C@H]1O [lactose]					no detectable affinity				
Gentiobiose			did not show activity		no detectable affinity			did not show any phosphorolysis activity	
OC[C@H]1O[C@@](CO)(O[C@H]2O[C@H](CO)[C@@H](O)[C@H](O)[C@H]2O)[C@@H](O)[C@@H]1O [sucrose]			did not show activity					did not show any phosphorolysis activity	
Oat β-glucan			did cleave						Km [5]: 0.32 ± 0.05 mg/mL; kcat [5]: 46 ± 0.8 s⁻¹
OC[C@H]1O[C@H](O[C@H]2[C@H](O)[C@@H](O)[C@H](O)O[C@@H]2CO)[C@H](O)[C@@H](O)[C@@H]1O [maltose]			did not show activity		no detectable affinity			did not show any phosphorolysis activity	
OC[C@H]1O[C@@H](O[C@H]2[C@H](O)[C@@H](O)[C@H](O[C@H]3[C@H](O)[C@@H](O)[C@H](O[C@H]4[C@H](O)[C@@H](CO)OC(O)[C@@H]4O)O[C@@H]3CO)O[C@@H]2CO)[C@H](O)[C@@H](O)[C@@H]1O (stereo partly drawn) [G4G4G3G, Glc-β-1-4-Glc-β-1-4-Glc-β-1-3-Glc]	5.7 kcal/mol	-12.9 ± 0.85 kcal/mol		5.14 µM		0.77 and 0.77 ± 0.02	-7.22 kcal/mol		Kd [1, 9]: 5.14 µM; Km fold-change [6]: ~0.75 fold; kcat/Km higher compared to G4G3G [6]: 1.6 fold; kcat/Km higher compared to cellotriose [6]: 2.4 fold; cleavage by BpGH3-AR8MLG (in words) ([4]; TLC): cleaved; kcat ([7]; PAHBAH assay, 100 mM HEPES pH 6.5, 37 °C): 18 ± 0.3 s⁻¹; cleavage by BpGH3-X62MLG (in words) ([7]; TLC): cleaved
OC[C@H]1O[C@@H](O[C@H]2[C@H](O)[C@@H](O)[C@H](O[C@H]3[C@H](O)[C@@H](O)[C@H](O[C@H]4[C@H](O)[C@@H](O)C(O)O[C@@H]4CO)O[C@@H]3CO)O[C@@H]2CO)[C@H](O)[C@@H](O)[C@@H]1O (some centres unmarked) [Cellotetraose]	8.25 kcal/mol	-16.6 ± 0.75 kcal/mol		0.75 µM		0.45 ± 0.02	-8.35 kcal/mol		n (binding stoichiometry) ([1]; ITC at 25 °C, 10 mM sodium phosphate pH 7.0, listed as cellotetraose): 0.45; Km [4]: 470 ± 60 µM; kcat [4]: 20 ± 0.2 s⁻¹
OC[C@H]1O[C@@H](O[C@@H]2[C@@H](O)[C@H](O[C@H]3[C@H](O)[C@@H](CO)OC(O)[C@@H]3O)O[C@H](CO)[C@H]2O)[C@H](O)[C@@H](O)[C@@H]1O (some centres unmarked) [Laminaritriose]	3.8 kcal/mol	-3.66 ± 0.02 kcal/mol	did cleave	3.41 µM		0.9 ± 0.01	-7.46 kcal/mol	did not show any phosphorolysis activity	
O=C[C@H](O)[C@@H](O)[C@H](O[C@@H]1O[C@H](CO)[C@@H](O)[C@H](O)[C@H]1O)[C@H](O)CO [Cellobiose]	0.8 kcal/mol	-7.0 ± 2.2 kcal/mol	did not show activity	30.6 µM	some affinity	0.78± 0.18	-6.2 kcal/mol	did not show any phosphorolysis activity	Km [4]: 200 ± 30 µM; kcat [4]: 8 ± 0.1 s⁻¹; Km [8]: 120 µM; kcat [8]: 0.23 s⁻¹
